The source of these data is ChEMBL document CHEMBL5500342, “Rational molecular design converting fascaplysin derivatives to potent broad-spectrum inhibitors against bacterial pathogens via targeting FtsZ” (Eur J Med Chem, 2024).

Data set [1] concerns Staphylococcus aureus. As to the kind of experiment: Antibacterial activity against methicillin-resistant Staphylococcus aureus ATCC43300 assessed as inhibition of bacterial growth incubated for 18 hrs by CLSI protocol based microbroth dilution method. The class given is functional.
Data set [2] concerns Streptococcus pneumoniae. As to the kind of experiment: Antibacterial activity against Streptococcus pneumoniae ATCC49619 assessed as inhibition of bacterial growth incubated for 18 hrs by CLSI protocol based microbroth dilution method. The data set is classed as functional.
In data set [3] the test system is Bacillus subtilis. As to the kind of experiment: Antibacterial activity against Bacillus subtilis BNCC336690 assessed as inhibition of bacterial growth incubated for 18 hrs by CLSI protocol based microbroth dilution method. The data set is classed as functional.
In data set [4] the test system is Escherichia coli. The experiment in a line: Antibacterial activity against penicillin-susceptible Escherichia coli ATCC25922 assessed as inhibition of bacterial growth incubated for 18 hrs by CLSI protocol based microbroth dilution method. The data set is classed as functional.
Data set [5] has as its system Salmonella enteritidis. As to the kind of experiment: Antibacterial activity against Salmonella enteritidis BNCC281091 assessed as inhibition of bacterial growth incubated for 18 hrs by CLSI protocol based microbroth dilution method. The data set is classed as functional, Salmonella enterica subsp. enterica serovar Enteritidis. Particulars: Salmonella enterica.
Data set [6] has as its system Staphylococcus aureus. As to the kind of experiment: Bactericidal activity against methicillin-resistant Staphylococcus aureus ATCC43300 incubated for 24 hrs by CLSI protocol based microbroth dilution method. The data set is classed as functional.
The subject of data set [7] is Staphylococcus aureus. The experiment in a line: Selectivity ratio of MBC for bactericidal activity against methicillin-resistant Staphylococcus aureus ATCC43300 to MIC for antibacterial activity against methicillin-resistant Staphylococcus aureus ATCC43300. The data set is classed as functional.
Data set [8] concerns Cell membrane. As to the kind of experiment: Disruption of cell membrane integrity in methicillin-resistant Staphylococcus aureus ATCC43300 assessed as appearance of collapsed cells at 4 times of MIC incubated for 2 hrs by transmission electron microscopic analysis. The class given is cell membranes.
Data set [9] deals with Escherichia coli. The experiment in a line: Induction of morphological changes in penicillin-susceptible Escherichia coli ATCC25922 assessed as cell elongation at 0.5 times of MIC incubated for 4 hrs by optical microscopic analysis. The class given is functional, organism-based.
Data set [10] concerns the target T1, Cell division protein FtsZ (Staphylococcus aureus) (UniProt P0A031).
T1 sequence (whole entry): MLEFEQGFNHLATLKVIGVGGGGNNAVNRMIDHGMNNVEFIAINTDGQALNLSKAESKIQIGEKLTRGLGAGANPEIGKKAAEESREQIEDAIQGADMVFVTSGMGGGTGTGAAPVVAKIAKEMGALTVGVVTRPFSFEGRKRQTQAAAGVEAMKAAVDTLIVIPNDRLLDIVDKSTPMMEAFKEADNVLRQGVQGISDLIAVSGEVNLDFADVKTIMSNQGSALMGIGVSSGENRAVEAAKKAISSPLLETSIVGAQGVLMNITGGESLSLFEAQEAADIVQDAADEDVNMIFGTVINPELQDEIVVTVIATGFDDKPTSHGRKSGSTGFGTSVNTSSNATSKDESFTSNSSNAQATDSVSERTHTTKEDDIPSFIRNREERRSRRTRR
As to the kind of experiment: Induction of recombinant FtsZ polymerization in methicillin-resistant Staphylococcus aureus ATCC43300 assessed as bundling of FtsZ protofilaments at 1 to 4 microg/ml measured within 5 mins by light scattering assay. The conditions noted are these: filed as activator, dose 1-4 µg/ml.

Data set [11] concerns the target T1, Cell division protein FtsZ (Staphylococcus aureus). As to the kind of experiment: Induction of recombinant FtsZ polymerization in methicillin-resistant Staphylococcus aureus ATCC43300 assessed as bundling of FtsZ protofilaments by measuring fold increase in maximal intensity at 4 microg/ml measured after 10 mins by light scattering assay. The conditions noted are these: filed as activator, dose 4.0 µg/ml.

The target is the same in data set [12]. The experiment in a line: Induction of FtsZ polymerization in methicillin-resistant Staphylococcus aureus ATCC43300 assessed as increase in size of assembly at 4 microg/ml preincubated for 10 mins followed by GTP addition and measured after 15 mins by transmission electron microscopic analysis. The conditions noted are these: filed as activator, dose 4.0 µg/ml, time 25.0 min.

For data set [13] the target is unchanged. As to the kind of experiment: Induction of FtsZ polymerization in methicillin-resistant Staphylococcus aureus ATCC43300 assessed as bundling of FtsZ protofilaments at 4 microg/ml preincubated for 10 mins followed by GTP addition and measured after 15 mins by transmission electron microscopic analysis. The conditions noted are these: filed as activator, dose 4.0 µg/ml, time 25.0 min.

Data set [14] deals with T2, Cell division protein FtsZ (Escherichia coli K-12) (UniProt P0A9A6).
T2 sequence (whole entry): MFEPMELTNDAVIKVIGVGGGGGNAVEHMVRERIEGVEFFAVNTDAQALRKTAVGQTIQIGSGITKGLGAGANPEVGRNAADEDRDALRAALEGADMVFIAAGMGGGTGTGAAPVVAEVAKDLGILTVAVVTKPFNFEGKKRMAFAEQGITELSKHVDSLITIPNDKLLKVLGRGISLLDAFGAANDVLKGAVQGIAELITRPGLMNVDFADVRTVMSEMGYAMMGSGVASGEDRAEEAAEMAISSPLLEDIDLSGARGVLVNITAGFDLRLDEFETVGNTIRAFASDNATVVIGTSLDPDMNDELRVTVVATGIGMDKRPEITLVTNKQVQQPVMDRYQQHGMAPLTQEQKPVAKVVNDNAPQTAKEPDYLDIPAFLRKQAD
As to the kind of experiment: Induction of FtsZ polymerization in penicillin-susceptible Escherichia coli ATCC25922 assessed as larger bundles at 4 microg/ml preincubated for 10 mins followed by GTP addition and measured after 15 mins by transmission electron microscopic analysis. Particulars: filed as activator, dose 4.0 µg/ml, time 25.0 min.

The target of data set [15] is T2, Cell division protein FtsZ (Escherichia coli K-12). As to the kind of experiment: Enhancement of FtsZ GTPase activity in penicillin-susceptible Escherichia coli ATCC25922 upto 8 microg/ml incubated for 30 mins by malachite green phosphate based assay relative to control. Particulars: dose <= 8.0 µg/ml.
For data set [16], the system named is Staphylococcus aureus. As to the kind of experiment: Inhibition of biofilm formation in methicillin-resistant Staphylococcus aureus ATCC43300 incubated for 24 hrs by crystal violet staining based analysis. The class given is functional, organism-based. The conditions noted are these: dose 0.78-100 µg/ml.
Data set [17] concerns Escherichia coli. As to the kind of experiment: Antibacterial activity against penicillin-susceptible Escherichia coli ATCC25922 assessed as log reduction in bacterial count measured after 8 hrs by time kill kinetics assay. The class given is functional, organism-based.
Data set [18] relates to Escherichia coli. As to the kind of experiment: Drug resistance, ratio of MIC for penicillin-susceptible Escherichia coli ATCC25922 incubated for 18 to 24 hrs and measured after 4 passages to MIC for penicillin-susceptible Escherichia coli ATCC25922 measured after 18 to 24 hrs. The class given is functional.
In data set [19] the test system is Escherichia coli. As to the kind of experiment: Antibacterial activity against penicillin-susceptible Escherichia coli ATCC25922 assessed as log reduction in bacterial count at 4 times of MIC measured after 1 hrs by time kill kinetics assay. The data set is classed as functional.
Data set [20] concerns Escherichia coli. As to the kind of experiment: Antibacterial activity against penicillin-susceptible Escherichia coli ATCC25922 assessed as log reduction in bacterial count at 1 times of MIC measured after 2 hrs by time kill kinetics assay. The class given is functional, organism-based.
Data set [21] has as its system Escherichia coli. As to the kind of experiment: Drug resistance, ratio of MIC for penicillin-susceptible Escherichia coli ATCC25922 incubated for 18 to 24 hrs and measured after 21 passages to MIC for penicillin-susceptible Escherichia coli ATCC25922 measured after 18 to 24 hrs. The class given is functional.
Data set [22] concerns Cell membrane. As to the kind of experiment: Disruption of cell membrane integrity in methicillin-resistant Staphylococcus aureus ATCC43300 assessed as cell wall disruption at 4 times of MIC incubated for 2 hrs by transmission electron microscopic analysis. The data set is classed as cell membranes.
Data set [23] can be described thus: Cytotoxicity against mouse RAW264.7 cells assessed as cell viability at 3.125 microg/ml incubated for 24 hrs by CCK8 assay relative to control. The class given is toxicity, cell-based. The conditions noted are these: dose 3.125 µg/ml, read-out: Activity.
Data set [24] in a line: Cytotoxicity against mouse RAW264.7 cells assessed as cell viability at 6.25 microg/ml incubated for 24 hrs by CCK8 assay relative to control. The class given is toxicity, cell-based. The conditions noted are these: at 6.25 µg/mL, read-out: Activity.

The source made the active and inactive calls. The calls are words filed in the database; no cut-off is given here.

As for `O=C1c2ccccc2-[n+]2ccc3c([nH]c4ccc(-c5ccccc5Cl)cc43)c21.[Cl-]`, the MIC in [1] turned out to be 1.56 µg/mL; in data set [2], 0.195 µg/mL; in data set [3] it was 0.049 µg/mL; in data set [4] it was 12.5 µg/mL; in [5] it was 50 µg/mL. Moreover, in [6], the MBC amounted to 1.56 µg/mL. For the same compound, the Selectivity ratio in [7] was determined as 1. In addition, the result in data set [8], in data set [9], in data set [10], in data set [12], in data set [13] and in data set [14] was Active. In addition, the fold change (FC) in data set [11] came to 2. Moreover, the Activity in data set [15] was found to be 10%. In addition, the inhibition entry in data set [16] was “Dose-Dependent Effect”.
With `O=C1c2ccccc2-[n+]2ccc3c([nH]c4ccc(-c5ccccc5F)cc43)c21.[Cl-]`, the MIC in data set [1] came to 0.195 µg/mL; in data set [2], 0.195 µg/mL; in data set [3], 0.024 µg/mL; in data set [4] it was 6.25 µg/mL; in data set [5] it was 12.5 µg/mL. Also, in data set [6], the MBC was determined as 0.195 µg/mL. The Selectivity ratio in data set [7] amounted to 1. Further, the result in [17] was inactive. Also, the Ratio in data set [18] was 12. In addition, the result in data set [8], in data set [9], in data set [10], in data set [12], in [13] and in data set [14] was Active. Besides, in [11], the fold change (FC) was determined as 2. In [15], the Activity was found to be 10%. The inhibition entry in [16] was “Dose-Dependent Effect”.
As to `O=C1c2ccccc2-[n+]2ccc3c([nH]c4ccc(-c5ccccc5C(F)(F)F)cc43)c21.[Cl-]`, the MIC worked out at 1.56 µg/mL in [1]; 0.195 µg/mL in data set [2]; 0.024 µg/mL in [3]; 12.5 µg/mL in data set [4]; 12.5 µg/mL in [5]. In data set [6], this compound returned an MBC of 1.56 µg/mL. Moreover, in data set [7], the Selectivity ratio amounted to 1. Further, the Activity in [19] worked out at 3 log10CFU/ml; in [15], 10%. Moreover, the outcome in data set [20] was inactive. Also, the Ratio in data set [21] worked out at 12. Further, the result in data set [22], in [9], in data set [10], in data set [12], in [13] and in [14] was Active. For the same compound, the fold change (FC) in data set [11] came out at 2. The viability at 24 h, 3.125 microg/ml in data set [23] turned out to be 81%. Besides, the viability at 24 h, 6.25 microg/ml in data set [24] is 57%. Besides, in data set [16], the inhibition result is “Dose-Dependent Effect”.
